Source: ChEMBL document CHEMBL5303711, “ECBD screening data for assay EOS300108” (2023)
Where a name gives a salt, the structure may show the parent alone. The source made the active and inactive calls. The rule behind the calls is not given here.

Experiment: Cytotoxicity activity against human HepG2 cells assessed by CellTiter-Glo luminescent cell viability assay.
Format: toxicity, cell-based
Parameters: assay stage confirmatory assay, source tissue liver
Details: HepG2 cells, read-out: IC50 relative

Row | SMILES | CC50
1 | COc1cc(N2CCN(C)CC2)ccc1Nc1ncc2c(n1)N(C)c1ccccc1C(=O)N2 | 7.5 µM (active)
2 | CC(=O)C1=C(c2ccc(Br)cc2)N(C(C)=O)n2c(C)nnc2S1 | 10.9 µM (active)
3 | COc1ccsc1C(=O)Nc1ncc(Cl)s1 | 2.3 µM (active)
4 | O=C(c1ccc(Cl)cc1)N(CCCc1ccccc1)CCS(=O)(=O)N1CCNCC1 | 10.2 µM (active)
5 | N#Cc1ccc(O[C@@H]2c3ccccc3C[C@H]2N2CCC[C@@H](N)C2)c(Cl)c1 | 4.9 µM (active)
7 | CC(C)NC(=O)[C@H]1CC[C@@H](n2/c(=N/C(=O)c3ccc(F)cc3)[nH]c3ccc(CN4CCC(C(C)(C)O)CC4)cc32)CC1 | 0.8 µM (active)
8 | Cc1ccc(N2N=C(C(=O)NCCN3CCOCC3)S(=O)(=O)c3cc(F)ccc32)cc1 | 11.2 µM (active)
9 | COc1ccc(C(=O)N(C)C)cc1NC(=O)c1ccc2ccccc2n1 | 8.9 µM (active)
10 | CC(C)CC(=O)Nc1[nH]nc2c1CN(C(=O)C1CCN(C)CC1)C2(C)C [PHA-793887] | 1 µM (active)
11 | Cc1cc(C)cc(NC(=O)CC2CCCN(c3cn[nH]c(=O)c3)C2)c1 (stereo not given) | 2.4 µM (active)
12 | CC[C@H]1c2ccsc2CCN1C(=O)c1cc(OC)cc(OC)c1 | 13 µM (active)
13 | Nc1ccc(O)c2ncccc12 | 1.4 µM (active)
14 | c1cc2c(cc1C1=NN=C(NC3CC3)SC1)OCO2 | 9.1 µM (active)
15 | O=C(Nc1nc(-c2ccc(S(=O)(=O)N3CCOCC3)cc2)cs1)c1cccs1 | 5.3 µM (active)
16 | COCCCN[C@H]1CS(=O)(=O)C[C@@H]1S(=O)(=O)c1ccc(Cl)cc1 | 16.7 µM (active)
17 | CN1CCN([C@H]2CC[C@H](n3cc(-c4ccc(Oc5ccccc5)cc4)c4c(N)ncnc43)CC2)CC1 | 1.6 µM (active)
18 | c1ccc(-n2cnc3c(Nc4cnn(C[C@H]5CCCO5)c4)ncnc32)cc1 | 5.8 µM (active)
19 | CN(C)CC1(O)CCCN(Cc2cc3ccccc3n2C)C1 (stereo not given) | 11.8 µM (active)
20 | C[C@H]1CNC(=O)c2cnn3ccc(nc23)N[C@H](C)c2cc(F)ccc2O1 [REPOTRECTINIB] | 3.7 µM (active)
21 | CN(C)C1CCN(CCNC(=O)Nc2ccc(C3CC3)c(F)c2)CC1 | 4.5 µM (active)
22 | CCOc1ccc(S(=O)(=O)N(C)c2ccccc2)cc1 | 7.5 µM (inactive)
23 | Cc1ccc(O)c([C@H](CCN(C(C)C)C(C)C)c2ccccc2)c1 [TOLTERODINE TARTRATE] | 14.2 µM (active)

Row | SMILES | CC50
24 | Cc1ccc(NC(=O)c2cc3ccccc3c(=O)[nH]2)cc1 | 50 µM (inactive)
25 | CC1(C)CN2C(CS/C(=N\C3CCCCC3)NC3CCCCC3)=CSC2=N1 | 6 µM (active)
26 | Cc1cc(-c2ccc(O)cc2O)nc2cc3c(cc12)OCO3 | 26.3 µM (inactive)
27 | Nc1ncnc2c1c(I)cn2[C@@H]1O[C@H](CO)[C@@H](O)[C@H]1O [IODOTUBERCIDIN] | 0.4 µM (active)
28 | CCCc1cc(C)[nH]c(=O)c1CNC(=O)c1cc(-c2ccc(N3CCN(C(C)C)CC3)nc2)cc2c1cnn2C(C)C | 2.6 µM (active)
29 | Cc1ccc(-c2cc3c(=O)n(Cc4noc(CN5CCN(C)CC5)n4)ccn3n2)cc1 | 9.4 µM (active)
30 | O=C(Nc1ccc(Cl)cc1)N1CCCN(Cc2ccc(F)cc2)C1 | 6.7 µM (active)
31 | O=C(CCCN1CCC(O)(c2ccc(Cl)cc2)CC1)c1ccc(F)cc1 [HALOPERIDOL] | 9.6 µM (active)
32 | O[C@H]1CCN(Cc2csc(-c3ccoc3)n2)C12CCCC2 | 5 µM (active)
33 | COc1ccccc1OCCNc1ncnc2cc(F)ccc12 | 1.5 µM (active)
34 | CC(C)Oc1ccc(C(=O)Nc2ccc3c(c2)N(S(C)(=O)=O)CCC3)cc1 | 2.7 µM (active)
35 | Cc1nc2c(=O)n(C)c(=O)nc-2n(C)n1 | 0.7 µM (active)
36 | C[C@H]1O[C@@H](O[C@H]2[C@@H](O)C[C@H](O[C@H]3[C@@H](O)C[C@H](O[C@H]4CC[C@@]5(C)[C@H](CC[C@@H]6[C@@H]5CC[C@]5(C)[C@@H](C7=CC(=O)OC7)CC[C@]65O)C4)O[C@@H]3C)O[C@@H]2C)C[C@H](O)[C@@H]1O [DIGITOXIN] | 0.1 µM (active)
37 | Cc1c(-c2ccc(N3CCc4cccc(C(=O)Nc5nc6ccccc6s5)c4C3)nc2C(=O)O)cnn1CC12CC3CC(CC(C3)C1)C2 | 1 µM (active)
38 | CNc1nc2c(=O)[nH]c(N)nc2n1[C@@H]1O[C@H](CO)[C@@H](O)[C@H]1O | 11.4 µM (active)
39 | COc1cccc(N2CCN(C(=O)C3CCN(c4nc5cccnc5n(C)c4=O)CC3)CC2)c1 | 4.4 µM (active)
40 | CC[C@H]1CN(c2ccccc2)CCN1c1ccnc(C(C)C)n1 | 10.7 µM (active)
41 | O=C(NC1CCN(CCCCC2(C(=O)NCC(F)(F)F)c3ccccc3-c3ccccc32)CC1)c1ccccc1-c1ccc(C(F)(F)F)cc1 [LOMITAPIDE] | 1.4 µM (active)
42 | Nc1nc(C2CC(N)C2)cc(N2CCC(OCc3ccccc3)CC2)n1 (stereo not given) | 10.8 µM (active)
43 | O=C(COc1ccc(F)cc1)N1CCN(c2ncnc3c(F)cccc23)CC1 | 9.7 µM (active)
44 | COc1c(Nc2ncc(Cl)c(N[C@H]3[C@@H](C(N)=O)[C@@H]4C=C[C@H]3C4)n2)ccc2c1CC[C@@H](N1CCOCC1)CC2 | 2 µM (active)
45 | O=[N+]([O-])c1ccc(O)c2ncccc12 [NITROXOLINE] | 12.4 µM (active)
46 | Cc1oc2c(c1C(=O)c1ccc(Cl)cc1)C(=O)C(=O)c1ccccc1-2 | 31.4 µM (inactive)

Row | SMILES | CC50
47 | CCc1n[nH]cc1C(=O)N[C@H]1CC[C@H](Nc2nccc(-c3ccccn3)n2)C1 | 3.9 µM (active)
48 | CN1CCN(Cc2ccc(-c3cnc4[nH]cc(-c5ccc6[nH]ccc6c5)c4c3)cc2)CC1 | 1.4 µM (active)
49 | COc1cc(OC)c(OC)cc1CNC(=O)c1cccc2cccnc12 | 12 µM (inactive)
50 | CCN(CC)CCNC(=O)C1CCN(c2nn3cc(-c4ccc(OC)cc4)nc3s2)CC1 | 2.7 µM (active)
51 | CC(=O)c1cnc2ccc(-c3cc(Cl)c(O)c(Cl)c3)nc2c1N[C@H]1CC[C@H](CN(C)C)CC1 | 0.1 µM (active)
52 | CCc1nccn1[C@H]1CCCN(CCOc2ccc(OC)cc2)C1 | 4.1 µM (active)
53 | CC(=O)N1N=C(c2ccc(Br)cc2)C[C@H]1c1ccc(O)cc1 | 20.2 µM (inactive)
54 | c1cc(-c2cnn3cc(-c4ccc(N5CCNCC5)cc4)cnc23)c2cccnc2c1 | 0.9 µM (active)
55 | CCn1cc(CC(=O)Nc2ccc(Oc3ccccc3)cn2)cn1 | 5.3 µM (active)
56 | Cc1cccnc1N1CCN(c2cc([C@H]3C[C@@H](N)C3)nc(N)n2)CC1 | 11.1 µM (active)
57 | CCN(C)C[C@H]1CCN(Cc2ccc(OCc3ccccc3F)nc2)C1 | 6.7 µM (active)
58 | CC(C)Oc1ccc(-c2nc(-c3cccc4c3CC[C@@H]4NCCO)no2)cc1C#N [OZANIMOD] | 3.4 µM (active)
59 | NC(=O)c1cc(NC(=O)CCSc2ccccc2Br)[nH]n1 | 13.6 µM (active)
60 | O=C1NCCSc2c1sc1ccc(O)cc21 | 1 µM (active)
61 | CC[N+](CC)=c1ccc2nc3c(cc(N)c4ccccc43)oc-2c1 [NILE BLUE HYDROCHLORIDE] | 2 µM (active)
62 | O=C(c1ccc(Nc2nccc(-c3cc4ccccc4s3)n2)cc1)N1CCC(N2CCCC2)CC1 | 1.3 µM (active)
63 | O=S1(=O)C[C@H](NC2CCCC2)[C@@H](S(=O)(=O)c2ccc(Cl)cc2)C1 | 12.1 µM (active)
64 | NCCn1cc(C(=O)N2CCN(Cc3ccc(Br)s3)CC2)nn1 | 7.4 µM (active)
65 | CCN1/C(=C/C(C)=C/c2sc3ccccc3[n+]2CC)Sc2ccccc21 | 0.4 µM (active)
66 | Nc1nc(Nc2ccccc2F)nc2ccccc12 | 8.4 µM (active)
67 | CC(C)[C@H](CO)Nc1nc(Nc2cccc(Cl)c2)c2ncn(C(C)C)c2n1 [PURVALANOLA] | 14.4 µM (active)
68 | O=C(Nc1ccc(Cl)cc1)Nc1ccc(Cl)c(Cl)c1 [TRICLOCARBAN] | 42.9 µM (inactive)
69 | Cc1ccc(NC(=O)NC[C@@H](C(C)C)N2CCN(C)CC2)cc1Cl | 11.3 µM (active)

Row | SMILES | CC50
70 | COc1cc(C(=O)N2CCC(N3CCN(C)CC3)CC2)ccc1Nc1ncc2c(n1)N(C)c1ccccc1C(=O)N2C | 4.5 µM (active)
71 | C=CC(=O)Nc1cccc(Nc2nc(Nc3ccc(OCCOC)cc3)ncc2F)c1 [SPEBRUTINIB] | 1.3 µM (active)
72 | Cc1ccccc1OCC(=O)Nc1ccc(OC2CCN(C)CC2)cc1 | 13.6 µM (inactive)
73 | c1ccc(-c2ccc(CNC3CN4CCC3CC4)cc2)cc1 (stereo not given) | 5.6 µM (active)
74 | COc1ccc2[nH]c(NC(=O)[C@@H]3CCCC(=O)N3)cc2c1 | 4.6 µM (active)
75 | O=C(Oc1c(Cl)cc(Cl)c2cccnc12)c1ccco1 | 8 µM (active)
76 | CN1CCN(S(=O)(=O)c2cccc(C(=O)Nc3nc(-c4ccccc4)cs3)c2)CC1 | 12.5 µM (active)
77 | NCc1ccc(C(=O)NC2CCc3c[nH]nc3C2)cc1 (stereo not given) | 9.4 µM (active)
78 | Cc1ccc(NC(=O)c2cccc(F)c2Cl)cc1O | 0.7 µM (active)
79 | CC(C)c1ccc(-c2cc(=O)c3ccccc3o2)cc1 | 11.1 µM (active)
80 | CCOc1ccc(C(=O)N2CCN(Cc3noc(-c4ccc(F)cc4)n3)CC2)cc1 | 4.8 µM (active)
81 | O=C(Nc1nc(-c2ccco2)cs1)c1cccnc1N1CCOCC1 | 1.6 µM (active)
82 | CC/C(=C(\c1ccc(O)cc1)c1ccc(OCCN(C)C)cc1)c1ccccc1 [AFIMOXIFENE] | 3.9 µM (active)
83 | CNc1nc(N2CCCO[C@@H](CN)C2)nc2ccccc12 | 6.4 µM (active)
84 | Cn1c(C#N)ccc1-c1ccc2c(c1)C(C)(C)OC(=S)N2 [TANAPROGET] | 4.6 µM (active)
85 | COc1ccc(CN2CCN(c3ncnc4sccc34)CC2)cc1OC | 1.4 µM (active)
86 | C[C@@H](OC[C@@]1(c2ccccc2)CC[C@]2(CCC(=O)N2)CN1)c1cc(C(F)(F)F)cc(C(F)(F)F)c1 [ROLAPITANT] | 8.9 µM (active)
87 | CC(C)(C)c1cc(C(C)(C)C)c(NC(=O)c2c[nH]c3ccccc3c2=O)cc1O [IVACAFTOR] | 7.5 µM (active)
88 | Cc1cccc2cc(C(=O)Nc3ccc(N4CCN(C)CC4)cn3)oc12 | 12.6 µM (active)
89 | CC[C@@](NC(=O)c1csc(-c2ccoc2)n1)(C(N)=O)C(C)C | 5.2 µM (active)
90 | Cc1ccc(NC(=O)Nc2ccc3c(c2)N(S(C)(=O)=O)CC3)cc1F | 3.6 µM (inactive)
